Experimental data taken from article PMC8686763, “Pre-Steady-State Kinetics of the SARS-CoV-2 Main Protease as a Powerful Tool for Antiviral Drug Discovery” (Frontiers in Pharmacology, 2021).

How the values were obtained:
[1] = target: T1, C145A M^pro (Severe acute respiratory syndrome coronavirus 2, UniProt P0DTD1, C3408A); assay type: binding, SARS-CoV-2
[2] = target: T1, C145A M^pro; assay type: binding, SARS-CoV-2; remark: listed apart in the source

COc1cccc2[nH]c(C(=O)N[C@@H](CC(C)C)C(=O)N[C@@H](C[C@@H]3CCNC3=O)C(=O)CO)cc12 [PF-00835231]
K 1 (= k 1/k −1) [1]: 0.30 ± 0.02 M⁻¹
K 2 (= k 2/k −2) [1]: 0.35 ± 0.09
formation of the initial complex (k 1) faster for C145A M^pro than WT [1]: approximately 20 fold
k 1 [1]: (6.6 ± 0.2)×10^6 M^−1×s^−1
k 2 [1]: 1.0 ± 0.2 s⁻¹
k -1 [1]: 22 ± 0.2 s⁻¹
k -2 [1]: 2.8 ± 0.2 s⁻¹
change in Tm [2]: ~2.2 °C
